In patent US20240148821A1, “PHARMACEUTICAL USE OF CYCLIC PEPTIDE COMPOUND” (CHUGAI SEIYAKU KABUSHIKI KAISHA, priority 2021, published 2024):
pIC50: −log10 of the molar value. Bridge positions count the residues as written; N and C are the ends. Square brackets hold non-standard residues; d marks the D form. Peptide text beside a SMILES is read from it. * marks the point of attachment. hPhe(3-Cl-4-CF3) = N[C@@H](CCc1ccc(C(F)(F)F)c(Cl)c1)C(=O)O; NMeAbu(4,4,4-F3) = CN[C@@H](CC(F)(F)F)C(=O)O; NMePhe(4-Cl) = CN[C@@H](Cc1ccc(Cl)cc1)C(=O)O; Leu(4,5-dehydro) = C=C(C)C[C@H](N)C(=O)O; Phe(3-Br) = N[C@@H](Cc1cccc(Br)c1)C(=O)O; Phe(3-I) = N[C@@H](Cc1cccc(I)c1)C(=O)O; NMe3Pal = CN[C@@H](Cc1cccnc1)C(=O)O; NMeCha = CN[C@@H](CC1CCCCC1)C(=O)O; Pro(4-oxo) = O=C1CN[C@H](C(=O)O)C1; NMeChg = CN[C@H](C(=O)O)C1CCCCC1; NMeD = CN[C@@H](CC(=O)O)C(=O)O; NMeL = CN[C@@H](CC(C)C)C(=O)O; NMeV = CN[C@H](C(=O)O)C(C)C; NMeA = CN[C@@H](C)C(=O)O; NMeAib = CNC(C)(C)C(=O)O; Nle = CCCC[C@H](N)C(=O)O; Piperidide = C1CCN(*)CC1; Pyrrolidide = C1CCN(*)C1; Ac5c = NC1(C(=O)O)CCCC1; Aze = O=C(O)[C@@H]1CCN1; Ac4c = NC1(C(=O)O)CCC1; Sar = CNCC(=O)O

tested on: Human pancreatic cancer cell line AsPC-1 (G12D mutation Kras); experiment: AsPC-1 cell growth inhibition (AsPC-1 CGI); type: cell-based; conditions: read-out: AsPC-1 cell growth inhibition, 50% growth inhibitory concentration (IC50 value); 96 hours, CellTiter-Glo, values classified in ranges
Method: Test compounds were serially dilated with dimethyl sulfoxide, and 200 nL was then dispensed to a U-bottom 96-well plate using Labcyte Echo. […] The cell suspension was dispensed to a. plate containing a test compound at 100 μL per well and incubated at 37° C. in a 5% carbon dioxide gas incubator. 96 hours later, 80 μL of CellTiter-Glo (Promega) was added to each well and fluorescence was measured.

Row | SMILES | pIC50
1 | CC[C@H](C)[C@@H]1NC(=O)[C@H](CC(C)C)N(C)C(=O)C[C@@H](C(=O)N2CCCCC2)N(C)C(=O)[C@H](C(C)C)N(C)C(=O)C2(CCCC2)NC(=O)[C@@H]2CC(=O)CN2C(=O)[C@H](CCc2ccc(C(F)(F)F)c(Cl)c2)NC(=O)CN(C)C(=O)[C@H](CC2CCCCC2)N(C)C(=O)[C@@H]2CCN2C(=O)[C@H](C)N(C)C1=O [Compound 1819] ([NMeL]I[NMeA][Aze][NMeCha][Sar][hPhe(3-Cl-4-CF3)][Pro(4-oxo)][Ac5c][NMeV][NMeD]-Piperidide; lactam N-11) | < 6.30
2 | CC[C@H](C)[C@@H]1NC(=O)[C@H](CC(C)C)N(C)C(=O)C[C@@H](C(=O)N2CCCCC2)N(C)C(=O)[C@H](C2CCCCC2)N(C)C(=O)C2(CCCC2)NC(=O)[C@@H]2CCCN2C(=O)[C@H](CCc2ccc(C(F)(F)F)c(Cl)c2)NC(=O)CN(C)C(=O)[C@H](CC(F)(F)F)N(C)C(=O)CN(C)C(=O)CN(C)C1=O [Compound 1841] ([NMeL]I[Sar][Sar][NMeAbu(4,4,4-F3)][Sar][hPhe(3-Cl-4-CF3)]P[Ac5c][NMeChg][NMeD]-Piperidide; lactam N-11) | < 6.30
3 | CCCC[C@@H]1NC(=O)[C@H](Cc2cccc(Br)c2)NC(=O)CN(C)C(=O)[C@H](Cc2ccc(Cl)cc2)N(C)C(=O)CN(C)C(=O)CN(C)C(=O)[C@H]([C@@H](C)CC)NC(=O)[C@H](CC(C)C)N(C)C(=O)C[C@@H](C(=O)N2CCCCC2)N(C)C(=O)[C@H](CC(C)C)NC(=O)C(C)(C)N(C)C1=O [Compound 1404] ([NMeL]I[Sar][Sar][NMePhe(4-Cl)][Sar][Phe(3-Br)][Nle][NMeAib]L[NMeD]-Piperidide; lactam N-11) | < 6.30
4 | CC[C@H](C)[C@@H]1NC(=O)[C@H](C)N(C)C(=O)C[C@@H](C(=O)N2CCCC2)N(C)C(=O)[C@H](C2CCCCC2)N(C)C(=O)C2(CCCC2)NC(=O)[C@H](Cc2cccnc2)N(C)C(=O)[C@H](CCc2ccc(C(F)(F)F)c(Cl)c2)NC(=O)CN(C)C(=O)[C@H](CC2CCCCC2)N(C)C(=O)[C@@H]2CCN2C(=O)CN(C)C1=O [Compound 1810] ([NMeA]I[Sar][Aze][NMeCha][Sar][hPhe(3-Cl-4-CF3)][NMe3Pal][Ac5c][NMeChg][NMeD]-Pyrrolidide; lactam N-11) | < 6.30
5 | C=C(C)C[C@@H]1NC(=O)[C@H](Cc2cccc(I)c2)NC(=O)CN(C)C(=O)[C@H](Cc2ccc(Cl)cc2)N(C)C(=O)CN(C)C(=O)CN(C)C(=O)[C@H]([C@@H](C)CC)NC(=O)[C@H](CC(C)C)N(C)C(=O)C[C@@H](C(=O)N2CCCCC2)N(C)C(=O)[C@H](CC(C)C)NC(=O)C(C)(C)N(C)C1=O [Compound 1421] ([NMeL]I[Sar][Sar][NMePhe(4-Cl)][Sar][Phe(3-I)][Leu(4,5-dehydro)][NMeAib]L[NMeD]-Piperidide; lactam N-11) | < 6.30
6 | CC[C@H](C)[C@@H]1NC(=O)[C@H](CC(C)C)N(C)C(=O)C[C@@H](C(=O)N2CCCCC2)N(C)C(=O)[C@H](C2CCCCC2)N(C)C(=O)C2(CCCC2)NC(=O)[C@@H](C)NC(=O)[C@H](CCc2ccc(C(F)(F)F)c(Cl)c2)NC(=O)CN(C)C(=O)[C@H](CC2CCCCC2)N(C)C(=O)CN(C)C(=O)CN(C)C1=O [Compound 277] ([NMeL]I[Sar][Sar][NMeCha][Sar][hPhe(3-Cl-4-CF3)][dA][Ac5c][NMeChg][NMeD]-Piperidide; lactam N-11) | < 6.30
7 | CC[C@H](C)[C@@H]1NC(=O)[C@H](CC(C)C)N(C)C(=O)C[C@@H](C(=O)N2CCCC2)N(C)C(=O)[C@H](C2CCCCC2)N(C)C(=O)C2(CCC2)NC(=O)[C@@H]2CCCN2C(=O)[C@H](CCc2ccc(C(F)(F)F)c(Cl)c2)NC(=O)CN(C)C(=O)[C@H](CC2CCCCC2)N(C)C(=O)CN(C)C(=O)CN(C)C1=O [Compound 1894] ([NMeL]I[Sar][Sar][NMeCha][Sar][hPhe(3-Cl-4-CF3)]P[Ac4c][NMeChg][NMeD]-Pyrrolidide; lactam N-11) | ≥ 7.70
